Consider three compounds from PMC11032351, “Epigenetic modulation through BET bromodomain inhibitors as a novel therapeutic strategy for progranulin-deficient frontotemporal dementia” (Scientific Reports, 2024).

The nature of data set [1]: Pharmacokinetics in CD-1 mice, IV. Format: in vivo. The settings on record: for Auclast / Cmax / MRT inf / Tmax / half-life / AUC(0-t) / clearance / Vd: intravenously 5 mg/kg; for blood–brain barrier crossing (in words) / clearance (in words): IV 5 mg/kg; for Cmax / MRT inf / Tmax / half-life / AUC(0-t) / clearance / Vd: male, mouse, iv; for half-life: read-out: Terminal t1/2; for Vd: read-out: Vss. The protocol:
Analysis of pharmacokinetic parameters of 18A and 18B was performed by the Preclinical Pharmacology Core Lab (UT Southwestern Medical Center). Animal work described in this manuscript has been approved and conducted under the oversight of the UT Southwestern Institutional Animal Care and Use Committee and were carried out in accordance with relevant guidelines and regulations. UT Southwestern uses the “Guide for the Care and Use of Laboratory Animals” when establishing animal research standards. All methods are reported in accordance with ARRIVE guidelines. Compounds were suspended in 10% DMSO/20% PEG400/70% (30% HPβCD in water) at 0.484 mg/mL (18A) or at 0.5 mg/mL (18B). Compounds were administered to male CD1 mice (Charles River Laboratories, Wilmington, MA) IV via the tail vein at 5 mg/kg (0.30 mL dose volume for 18A, 0.35 mL dose volume for 18B). Mice were randomly assigned to time point groups and all investigators were aware of these assignments. After inhalation overdose of CO2, blood and tissues were collected from three mice per timepoint, at 5, 15, 30, 60, 240, 360, and 480 min post dosing, such that a mean concentration and standard deviation about the mean could be reported. Blood and tissues were also collected from mice dosed with Vehicle only at 480 min. Blood was collected using the anticoagulant ACD (acidified citrate dextrose) and plasma was isolated from the blood by centrifugation at 4 °C, 9600 × g for 10 min. After rinsing with PBS, tissues were weighed, snap-frozen in liquid nitrogen and stored at − 80 °C until processing. Brain was homogenized in a three-fold volume of PBS (weight by volume). Plasma and brain homogenates were extracted using a two-fold volume of methanol containing 0.15% formic acid and 37.5 ng/ml of an internal standard, n-benzylbenzamide (Sigma, St. Louis, MO). Samples were vortexed for 15 s, incubated at RT for 10 min and then centrifuged at 16,100 × g for 5 min at 4 °C. The supernatant was spun a second time and then analyzed by LC–MS/MS using a Sciex (Framingham, MA) 4000QTRAP® (positive ESI, multiple-reaction monitoring mode) after separation on an Agilent (Santa Clara, CA) C18 XDB column (5 micron packing, 50 × 4.6 mm size). The following separation gradient was used (Buffer A: water with 0.1% formic acid; Buffer B: MeOH with 0.1% formic acid): 0–1 min 5% B, 1–1.5 min gradient to 100% B, 1.5–3 min 100% B, 3–3.2 min gradient to 5% B, 3.2–4.5 min 5% B. For 18A, the transition (m/z) of 336.0/305.0 was monitored (retention time: 2.08 min); for 18B, the transition (m/z) of 336.1/169.0 was monitored (retention time: 2.09 min). The transition 212.1/91.1 (retention time 2.05 min) was monitored for the internal standard, n-benzylbenzamide. Tissues and plasma from untreated mice were used as controls to establish background noise for LC–MS/MS analysis of compound levels. Pharmacokinetic parameters were calculated using sparse sampling and the noncompartmental analysis tool in WinNonlin (Certara Corp, Princeton, NJ) for plasma and brain. Because mice were not perfused prior to collection of brain, the amount of compound estimated to be in the vasculature of the brain was subtracted using the measured plasma concentration and literature values for the volume of residual blood (30 µl/g tissue) in the brain Kwon[102].

Data set [2] has as its system PGRN protein levels. Kind of data set: PGRN quantification (Jess) in GRN R493X/+ 14-day differentiated neurons. It counts as cell-based, human. The conditions noted are these: GRN R493X/+ 14-day growth factor differentiated neurons, 24 h. The protocol:
PGRN capillary gel electrophoresis experiments were performed using Jess (Bio-Techne) and data were processed and analyzed using Compass for Simple Western software (version 6.0). Runs were conducted using EZ Standard Pack 1 12–230 kDa (Bio-Techne PS-ST01EZ-8), 12–230 kDa pre-filled plates (PS-PP03), 12–230 kDa separation module (SMW004), anti-rabbit HRP detection (DM-001), RePlex (RP-001), and total protein detection modules (DM-TP01, biotin labeling reagent 042-973) according to the manufacturer’s instructions, and with anti-PGRN primary (Abcam ab208777) diluted 1:50 in milk-free antibody dilution buffer (043–524). The following run settings were used for each experiment: separation time: 25 min, separation voltage: 375 V, RePlex purge time: 30 min, biotin labeling time: 30 min, antibody diluent time: 5 min, primary antibody time: 30 min, secondary antibody time: 30 min, total protein HRP time: 30 min. All intensity quantifications are normalized to the total protein assay quantification unless otherwise indicated.
For GRN^R493^X/+ NPCs, cells were grown to confluency in 6-well plates according to the above NPC culturing procedure. To each well was directly added 2 µL of 100 µM panobinostat, […], or DMSO only to produce final in-well concentrations of 100 nM or 1 µM, respectively (0.1% DMSO final concentration). […]

Where two headings read alike, the source gives them in different places.

A word on the Cmax: it is the peak of the concentration-time curve. The term MRT inf denotes the average time that molecules of a dose stay in the body. In general, Tmax refers to the time from dosing to the highest level. What is called AUC(0-t) is the area under the concentration-time curve up to a stated or last time point. Higher therefore signals high exposure. For orientation: clearance means a measure of how efficiently the substance is removed, as volume per time. With `Cn1ccc2c(-c3cccnc3Oc3ccc(F)cc3)c[nH]c2c1=O` [Compound 18B, 3-[2-(4-fluorophenoxy)pyridin-3-yl]-6-methyl-1,6-dihydro-7H-pyrrolo[2,3-c]pyridin-7-one], in data set [1] (Brain), the Auclast was found to be 31579 ng·min/g, the peak level (Cmax) was 1690 ng/g, the MRT inf was 17.6 min and the Tmax is 5 min. The half-life in data set [1] (Brain) turned out to be 73 min. Besides, in data set [1], the “blood–brain barrier crossing (in words)” value is “readily cross the blood–brain barrier” and the “clearance (in words)” value is “cleared quite rapidly”. Also, in data set [1] (Plasma), the AUC(0-t) is 511 ng·h/mL, the peak level (Cmax) was 1620 ng/mL, the mean residence time (MRT inf) is 25.8 min and the Tmax is 5 min. In addition, in data set [1] (Plasma), the clearance came to 5.61 mL/min, the half-life came out at 140 min and the Vd stood at 0.145 L.
In the case of `CCS(=O)(=O)Nc1ccc(Oc2ccc(F)cc2F)c(-c2cn(C)c(=O)c3[nH]ccc23)c1` [mivebresib], in data set [2], the PGRN protein levels result is “significantly increased PGRN protein levels”.
On to `Cn1cc(-c2cccnc2Oc2ccc(F)cc2)c2cc[nH]c2c1=O` [Compound 18A, 4-(2-(4-fluorophenoxy)pyridin-3-yl)-6-methyl-1H-pyrrolo[2,3-c]pyridin-7(6H)-one], for which, in data set [1] (Brain), the Auclast was determined as 63285 ng·min/g, the concentration peaked (Cmax) at 2970 ng/g, the MRT inf was 16.7 min and the Tmax was 5 min. Besides, the half-life in data set [1] (Brain) was 30 min. In addition, in data set [1], the “blood–brain barrier crossing (in words)” value is “readily cross the blood–brain barrier” and the “clearance (in words)” value is given as “cleared quite rapidly”. In data set [1] (Plasma), the AUC(0-t) was 658 ng·h/mL, the highest level (Cmax) was 1780 ng/mL, the MRT inf was 17.9 min and the Tmax was 5 min. In addition, in data set [1] (Plasma), the clearance came out at 3.67 mL/min, the half-life is 27 min and the Vd is 0.067 L.
